pIC50: −log10 of the molar value.
Target: T1, SNM1B (Homo sapiens, UniProt Q9H816)
T1 construct: for the MBL and β-CASP domains of SNM1B (aa 1–335) into baculoviral expression vectors pFB-CT10HF-LIC; made in house; host or cells: Sf9 insect cells (baculovirus)
T1 sequence (Q9H816 1-335): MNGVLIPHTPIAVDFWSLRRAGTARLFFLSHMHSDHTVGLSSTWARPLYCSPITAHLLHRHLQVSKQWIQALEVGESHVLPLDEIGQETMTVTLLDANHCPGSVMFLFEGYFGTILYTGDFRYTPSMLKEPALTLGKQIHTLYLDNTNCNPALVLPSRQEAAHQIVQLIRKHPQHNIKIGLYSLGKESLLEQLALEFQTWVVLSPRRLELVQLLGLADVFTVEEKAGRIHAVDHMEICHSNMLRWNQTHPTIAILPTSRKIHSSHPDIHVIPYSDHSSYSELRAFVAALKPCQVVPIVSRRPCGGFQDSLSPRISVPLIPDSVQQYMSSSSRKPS
Assay: real-time fluorescence-based nuclease assay, SNM1B
Assay type: biochemical
Method: There is structural similarity between SNM1A, SNM1B, and SNM1C and major mechanistic features are likely conserved between the three nucleases. We therefore tested (13) and other hydroxamic acid analogues for inhibition of SNM1B and SNM1C. Due to differences in catalytic turnover between the three enzymes, different concentrations of SNM1B (1 nM) and SNM1C (2.5 nM) were used compared to that for SNM1A (0.5 nM) in the assays. Note that the substrate utilised for the high-throughput fluorescence based and subsequent SNM1A and SNM1B assays differed slightly for SNM1C reflecting its (primarily) endonucleolytic, rather than exonucleolytic, activity (ESI Fig. 9 ^†).
Fluorescence-based nuclease digestion SNM1A–C assays were performed as described.[30,45] […] Fluorescence was measured using a PHERAstar FSX fluorescent plate reader in fluorescent top read mode using excitation at 495 nm, emission at 525 nm, and cutoff at […]. Fluorescence spectra were measured every 140 s, for 35 min, at 37 °C. The fluorescence intensity of each well was plotted against compound concentration and fitted using a log (inhibitor) response curve using GraphPad Prism software (GraphPad Software, Inc., La Jolla, CA, USA).

## C[C@H](Nc1nc(NCc2ccco2)nc2ccc(Cl)cc12)C(=O)NO [compound 19]
  pIC50: 5.60
